The values below come from patent US5580854A, “Substrate-related peptidyl-aldehyde inhibitors of the proteolytic activity of the multicatalytic proteinase complex” (Mount Sinai School of Medicine of The City University of …, priority 1994, dated 1996).

Read-outs that look alike come from different tables or passages of the source. Peptide text beside a SMILES is read from it. * marks the point of attachment. Cbz = O=C(OCc1ccccc1)*

The target of assay [1] is T1, BRAAP component of the MPC (Bos taurus, UniProt Q2TBP0+Q32KL2+Q3MHN0).
T1 construct: The MPC was isolated from frozen bovine pituitaries; tissue PelFreeze, Inc. (Rogers, Ark.) (supplier of the tissue; the enzyme was purified in house); host or cells: bovine pituitaries
To be noted: data from Orlowski et al., Biochemistry 32:1563-1572 (1993), cited from earlier work; for Km: [S] 1.6-8.0.

Assay [2] concerns the target T2, BrAAP component of the multicatalytic proteinase complex (MPC) (Bos taurus, UniProt Q2TBP0+Q32KL2+Q3MHN0).
T2 construct: The MPC was isolated from frozen bovine pituitaries; tissue PelFreeze, Inc. (Rogers, Ark.) (supplier of the tissue; the enzyme was purified in house); host or cells: bovine pituitaries
Put plainly: Activity of the BrAAP component of the MPC, coupled two step reaction with aminopeptidase N; Ki by Dixon plots. To be noted: substrate Cbz-Gly-Pro-Ala-Leu-Gly-pAB (1 to 4 mill); mean of 3 to 6 experiments ± SEM; read-out: Ki, BRAAP component. The assay is classed as biochemical, bovine. The text has this: (§1) The MPC was isolated from frozen bovine pituitaries, obtained from PelFreeze, Inc. (Rogers, Ark.) essentially as described in Orlowski & Michaud, Biochemistry 28:9270-9277 (1989), incorporated herein by reference.
(§2) Cbz-Gly-Pro-Ala-Leu-Gly-pAB and Cbz-Gly-Pro-Ala-Gly-Gly-pAB, where pAB is p-aminobenzoate, were used as convenient substrates for the determination of the activity of the BrAAP and SNAAP components respectively. The BrAAP component cleaves exclusively the Leu-Gly bond in Cbz-Gly-Pro-Ala-Leu-Gly-pAB, whereas the SNAAP component cleaves the Gly-Gly bond in Cbz-Gly-Pro-Ala-Gly-Gly-pAB.
(§3) A coupled two step reaction in the presence of excess aminopeptidase N (AN) was used for the determination of the BrAAP and SNAAP activities as described previously (Orlowski et al., Biochemistry 32:1563-1572 (1993)). Aminopeptidase N was purified from hog kidneys as described by Pfleiderer, Meth. Enzymol. 19:514-521 (1970) and freed from the contaminating metalloendopeptidase (EC 3.4.24.11) as previously described (Almenoff & Orlowski, Biochemistry 22:590-599 (1983)).
(§4) Inhibition constant (K1) values for the inhibitors of the present invention towards the various proteolytic activities of the MPC were determined by the method of Dixon, Biochem. J. 55:170-171 (1953). Plots of 1/v vs [I] were made at three (3) different synthetic substrate concentrations and six (6) different inhibitor concentrations [I]. Linear regression analysis gave generally correlation coefficients better than 0.99.
(§5) Inhibition was tested with and without preincubation of the MPC with the inhibitors of the invention. No increase in inhibition was observed after preincubation of the enzyme with the inhibitor for up to 30 min, indicating absence of slow binding phenomena and a rapid equilibration between enzyme and inhibitor.
(§6) Table II provides a summary of the Ki measurements for the various peptidyl aldehydes of the invention synthesized in accordance with Examples 2 and 3.

The target in assay [3] is T3, SNAAP component of the multicatalytic proteinase complex (MPC) (Bos taurus, UniProt Q2TBP0+Q32KL2+Q3MHN0).
T3 construct: The MPC was isolated from frozen bovine pituitaries; tissue PelFreeze, Inc. (Rogers, Ark.) (supplier of the tissue; the enzyme was purified in house); host or cells: bovine pituitaries
Put plainly: Activity of the SNAAP component of the MPC, coupled two step reaction with aminopeptidase N; Ki by Dixon plots. The assay is classed as biochemical, bovine. The settings on record: substrate Cbz-Gly-Pro-Ala-Gly-Gly-pAB (1 to 4 mill); mean of 3 to 6 experiments ± SEM.
From the text: as §1, §2, §3, §4, §5, §6

Assay [4] deals with T4, ChT-L component of the multicatalytic proteinase complex (MPC) (Bos taurus, UniProt Q32KL2).
T4 construct: The MPC was isolated from frozen bovine pituitaries; tissue PelFreeze, Inc. (Rogers, Ark.) (supplier of the tissue; the enzyme was purified in house); host or cells: bovine pituitaries
In words: ChT-L activity of the MPC with Cbz-Gly-Gly-Leu-pNA; Ki by Dixon plots. Format: biochemical, bovine. To be noted: substrate Cbz-Gly-Gly-Leu-pNA (0.1 to 0.4 MM); mean of 3 to 6 experiments ± SEM.
From the text: as §1
(§7) The substrates Cbz-Gly-Gly-Leu-pNA, Cbz-D-Ala-Leu-Arg-2NA and Cbz-Leu-Leu-Glu-2NA were used to determine the activities of the ChT-L, T-L and PGPH components of the MPC, respectively, as previously described by Wilk and Orlowski, J. Neurochem. 35:1172-1182 (1980) and J. Neurochem 40:842-849 (1983), where pNA is p-nitroaniline and 2NA is 2-naphthylamide.The rate of release of the chromogenic group (aromatic amine) was measured after diazotization (Goldbarg & Rutenburg, Cancer 11:283-291 (1958) Bratton & Marshall, J. Biol. Chem. 128:537-550 (1939)).
(§8) Reaction mixtures contained 0.4 to 0.8 mM substrate, Tris-HCl buffer (0.05M; pH 8.0) and enzyme (1 to 3 μg) in a final volume of 0.25 ml. Incubations were at 37° C. The reactions were stopped by addition of an equal volume of 10% trichloroacetic acid and diazotization was then carried out.
as §4, §5, §6

Assay [5] addresses T2, BrAAP component of the multicatalytic proteinase complex (MPC). To be noted: cited from earlier work.
For assay [6], the target named is T5, PGPH component of the multicatalytic proteinase complex (MPC) (Bos taurus, UniProt Q3MHN0).
T5 construct: The MPC was isolated from frozen bovine pituitaries; tissue PelFreeze, Inc. (Rogers, Ark.) (supplier of the tissue; the enzyme was purified in house); host or cells: bovine pituitaries
To be noted: cited from earlier work; for increase of the PGPH activity: low concentrations of SDS (0.02%) or fatty acids, depending on the substrate concentration.

The target in assay [7] is T5, PGPH component of the multicatalytic proteinase complex (MPC). Put plainly: PGPH activity of the MPC with Cbz-Leu-Leu-Glu-2NA; IC50. To be noted: substrate Cbz-Leu-Leu-Glu-2NA (0.2 to 0.6 mill); inhibitor concentration giving 50% inhibition; read-out: IC50, PGPH component. The assay is classed as biochemical, bovine.
From the text: as §1, §7, §8
Due to the sigmoidal relationship between reaction rate and substrate concentration for the PGPH activity, only IC50 values (inhibitor concentration giving 50% inhibition) at a substrate concentration of 0.64 mM were determined. […] Some inhibition of the ChT-L activity was also observed, although the Ki for this component was almost 20 times higher than that for the other three activities. […] Indeed, at the concentrations used, each of the inhibitors produced some activation of the T-L activity (data not shown).

Assay [8] concerns the target T6, multicatalytic proteinase complex (MPC) (Bos taurus, UniProt Q2TBP0+Q32KL2+Q3MHN0).
T6 construct: The MPC was isolated from frozen bovine pituitaries; tissue PelFreeze, Inc. (Rogers, Ark.) (supplier of the tissue; the enzyme was purified in house); host or cells: bovine pituitaries
In words: β-casein degradation by the MPC, HPLC. To be noted: 200 μM inhibitor, 30 min incubation, β-casein 200 μg, 20 mM Mg2+, MPC 30 μg. Format: biochemical, bovine. As for the experimental part: as §1
In vitro protein degrading activity of the MPC, and the effects of the various inhibitors of the present invention on such activity, was determined using β-casein and histone H3 as proteolytic substrates. For determining protein degrading activity in the presence and absence of inhibitors, incubation mixtures contained Tris-HCl buffer (0.05M, pH 8.0), β-casein or histone H3, 20 mM Mg^2+ where indicated, and inhibitor dissolved in dimethylsulfoxide, where indicated. In control samples, the inhibitor was replaced by an equal volume of dimethylsulfoxide alone.
In order to measure proteolysis by the MPC, and its inhibition by the inhibitors of the invention, aliquots of the reaction mixtures were removed after various incubation times and subjected to HPLC on a Deltapak column (C4; 5 μm; 300 A; 3.9×150 mm Waters). Elution of histone H3 was carried out with a linear gradient over 30 min. established between 30 and 50% acetonitrile (v/v) in water containing 0.1% trifluoroacetic acid (v/v) at a flow rate of 1 ml/min. Elution of β-casein was carried with a linear gradient established between 10 and 45% acetonitrile (v/v) in water containing 0.1% trifluoroacetic acid (v/v). The rate of protein degradation was determined by measuring the decrease of the peak height of the protein compared with controls in which the enzyme was omitted. Alternatively degradation of the proteins was determined by integrating the area under the peak of the protein at time zero and determining the decrease of the area after incubation with the enzyme.
FIG. 1 depicts the inhibition of β-casein degradation by Cbz-Gly-Pro-Ala-Leu-CHO. HPLC analyses were carried out on samples that had been incubated in the absence and presence of the inhibitor. Incubation mixtures contained β-casein (200 μg), 20 mM Mg^2+, MPC (30 μg) and various concentrations of, inhibitor, if used, in 2 μl of Me2 SO. […]

Turning to Cbz-Gly-Pro-Ala-Leu-Ala-pAB, in assay [1], the Michaelis-Menten constant (Km) is 6.7 mM, the kcat is 5.2 s⁻¹ and the “kcat /Km” value was 780 M⁻¹ s⁻¹.

For `C[C@H](NC(=O)[C@@H]1CCCN1C(=O)CNC(=O)OCc1ccccc1)C(=O)N[C@H](C=O)Cc1ccccc1` [Cbz-Gly-Pro-Ala-Phe-CHO] (Cbz-GPAF-aldehyde), the Ki came to 305 ± 77 µM in assay [2], 406 ± 54 µM in assay [3] and 1850 ± 750 µM in assay [4].

With “Cbz-Gly-Pro-Ala-Leu-Gly-p-aminobenzoate [Cbz-Gly-Pro-Ala-Leu-Gly-pAB]”, in assay [1], the Km was 5.2 mM, the kcat is 3.75 s⁻¹ and the “kcat /Km” value was 720 M⁻¹ s⁻¹.

Turning to `O=c1oc(Cl)c(Cl)c2ccccc12` [DCI, 3,4-dichloroisocoumarin], the “activation of the BrAAP component” value in assay [5] (treatment of the MPC with DCI (10 μM)) is given as 10 fold. Moreover, the “inactivation of the PGPH activity” value in assay [6] (DCI (10 μM)) is given as “almost complete inactivation”.

As for `CC(C)C[C@@H](C=O)NC(=O)[C@H](C)NC(=O)[C@@H]1CCCN1C(=O)CNC(=O)OCc1ccccc1` [Cbz-Gly-Pro-Ala-Leu-CHO] (Cbz-GPAL-aldehyde), the Ki in assay [2] worked out at 13.9 ± 1.9 µM; in assay [3], 17.2 ± 3.4 µM; in assay [4], 471 ± 48 µM. Moreover, in assay [7], the IC50 amounted to 60 µM. In addition, the “β-casein substrate remaining intact” value in assay [8] is recorded as roughly 90%.

As to `CC(C)[C@@H](C=O)NC(=O)[C@H](Cc1ccccc1)NC(=O)[C@@H]1CCCN1C(=O)CNC(=O)OCc1ccccc1` [Cbz-Gly-Pro-Phe-Val-CHO] (Cbz-GPFV-aldehyde), the Ki turned out to be 47.3 ± 4.9 µM in assay [2], 24 ± 0.84 µM in assay [3] and 331 ± 22 µM in assay [4]. Besides, the IC50 in assay [7] turned out to be 62 µM.

For the compound `CC(C)C[C@@H](C=O)NC(=O)[C@H](C)NC(=O)CNC(=O)[C@@H]1CCCN1C(=O)OCc1ccccc1` [Cbz-Pro-Gly-Ala-Leu-CHO] (Cbz-PGAL-aldehyde), the Ki in assay [2] is 104 ± 2.3 µM; in assay [3], 36.7 ± 3.6 µM; in assay [4] it was 16.4 ± 2.7 µM.

Regarding `CCCCCCCCCCCC(=O)O` [lauric acid], the “increase of the PGPH activity” value in assay [6] was roughly 10 fold.

As for `CCCCCCCCCCCCOS(=O)(=O)[O-].[Na+]` [SDS, sodium dodecyl sulfate], the “activation of the BrAAP component” value in assay [5] (treatment of the MPC with SDS, synthetic substrates) is reported as roughly 50 fold. Besides, the “increase of the PGPH activity” value in assay [6] is roughly 10 fold.
